Laboratory results taken from US20260126382A1, “INTELLIGENT NIR II PHOTOTHERMAL AND COLORIMETRIC SENSING TECHNOLOGY” (Nanyang Technological University, priority 2022, published 2026).

Tests used:
myrosinase (Myr) [1] = assay: Effect of interfering substances (metal ions, small molecules, amino acids, EDTA) on the Myr test system; type: biochemical; conditions: interfering substances 1 mM, FIG. 17C
Procedure: (§1) For Myr detection, Sin (2.5 mM, 30 μL) and GOx (5 mg/mL, 10 μL, according to previous literature (Jiang, C. et al., RSC Adv. 2017, 7, 44463-44469)) were mixed with different concentrations of Myr first, and reacted at 37° C. for 30 min to generate H2O2. Then, an acetate buffer containing TMB and AuNPs was added into the aforementioned solution, incubated at 45° C. for 25 min, and cooled to room temperature. Afterward, the solution was used for the analysis of Myr enzyme activity.
For the anti-interference experiments discussed below, Sin (2.5 mM, 30 μL) and GOx (5 mg/mL, 10 μL) were mixed with different interfering substances first and reacted at 37° C. for 30 min. Then, acetate buffer containing TMB and AuNPs were added into the above solution, incubated at 45° C. for 25 min, and cooled to room temperature, and afterwards, the solution was used for photothermal and colorimetric analysis.

myrosinase (Myr) [2] = assay: Effect of Sin concentration on the Sin+Myr+GOx+TMB+AuNPs system; type: biochemical; conditions: Myr 0.5 mg/mL, GOx 0.5 mg/mL, TMB 1.5 mM, AuNPs 0.45 nM
Procedure: as §1
Before testing different Myr concentrations, it is necessary to determine the maximum Sin concentration that can be applied. FIG. 16 illustrates that when the concentration of Sin exceeds 0.75 mM, the working efficiency decreases and the blue color becomes faint because excess Sin binds to the active regulatory sites of Myr, thereby inhibiting the activity of Myr to hydrolyze Sin. As a result, 0.75 mM was selected as the maximum Sin concentration for detecting commercial Myr at varying concentrations and constructing a standard curve. As shown in FIGS. 17A-B and 18, when Sin was present at a concentration of 0.75 mM, Myr was detectable in the range of 0-345 mU/mL, and its linear detection range in the absorption spectrum was 0 to 172.5 mU/mL with an LOD of 2.96 mU/mL.

[3] = natural enzyme, from literature; cited from earlier work
[4] = Peroxidase-like (POD-like) activity in the TMB+H2O2 system, Abs1064 nm; type: biochemical; conditions: TMB+H2O2 system with HRP, FIG. 11

| inhibitory effect on Myr activity (myrosinase (Myr) [1]) | Molecule | further results |
| --- | --- | --- |
| strongest inhibitory effect | [Cu+2] [Cu^2+] |  |
| inhibit Myr activity | N[C@@H](CS)C(=O)O [Cys] |  |
| inhibit Myr activity | N[C@@H](CCC(=O)N[C@@H](CS)C(=O)NCC(=O)O)C(=O)O [GSH] |  |
|  | C=CC/C(=N/OS(=O)(=O)[O-])S[C@@H]1OC(CO)[C@@H](O)C(O)C1O.[K+] (stereo partly shown) [Sin, Sinigrin] | Sin concentration above which working efficiency decreases (excess Sin inhibiting the activity of Myr) (myrosinase (Myr) [2]): exceeds 0.75 mM |
| inhibit Myr activity | O=C1O[C@H]([C@@H](O)CO)C(O)=C1O [Vc, Vitamin C] |  |
|  | horseradish peroxidase [HRP] | temperature beyond which activity is lost [3]: exceeds 50 °C; slope of Abs1064 nm vs. c(HRP) [4]: 0.04644 nM⁻¹ |
